In patent publication US20200397796A1, “METHODS OF TREATMENT OF CANCER COMPRISING CHK1 INHIBITORS” (SIERRA ONCOLOGY, INC., priority 2018, published 2020):

Key:
SW620 mouse colon cancer = assay: In vivo efficacy, SW620 xenograft model; settings: in combination with standard-dose gemcitabine; data not shown
Protocol: A program of in vivo efficacy studies was performed to assess the activity of SRA737 in combination with genotoxic chemotherapy and targeted agents, and as monotherapy.
One of these models also carried a MYCN amplification. A fourth HGSOC PDX model with partial resistance to PARPi was also sensitive to high dose SRA737 monotherapy.

[1] = Plasma protein binding, rapid equilibrium dialysis, dog; type: in vitro ADME; settings: 10 μM
Protocol: (§1) The PK of SRA737 have been determined in the mouse, rat, dog and monkey following oral and IV administration (Table 3). […] An acceptable terminal elimination t1/2 was also observed in each species. […] The plasma protein binding of SRA737 at 1 and 10 μM was examined in mouse, minipig, monkey and human plasma using ultracentrifugation and in dog plasma (10 μM) using rapid equilibrium dialysis.

Single dose PK, rat = type: in vivo
Protocol: as §1

[2] = Phase 1 clinical trial, SRA737 in combination with gemcitabine dose escalation; type: in vivo, human; settings: for AUC(0-t) / Cmax / Tmax / half-life: human, plasma, oral, mean
Protocol: A Phase 1 clinical trial was conducted in ‘all corners,’ i.e. no genetic selection was performed, to establish safety, tolerability and pharmacokinetics for SRA737 administered in combination with gemcitabine (“Dose Escalation Phase”). Cohorts consisting initially of a single subject received escalating doses of SRA737, starting in Cohort 1 with 40 mg/day administered orally on days 2, 3, 9, 10, 16, and 17 of each 28-day cycle. Cohorts also received various doses of gemcitabine, starting in Cohort 1 with 300 mg/m^2/day administered IV over 30 minutes on days 1, 8, and 15 of each 28-day cycle.
FIG. 3 presents a summary of dosing amounts for the cohorts tested. In the Dose Escalation Phase, a total of 55 subjects received SRA737 in 13 dose escalation cohorts at doses of 40 to 600 mg SRA737 combined with LDG doses of 50 to 300 mg/m^2.
At this dose, the Cmin (52 ng/mL) exceeded that determined in preclinical models to be effective.
Additional cohorts are monitored escalating the dose of SRA737 until the maximum tolerated dose (MTD) is identified and to optimize combination dosing with gemcitabine. All enrolled subjects who receive at least 1 dose of SRA737 and provide at least 1 evaluable PK concentration or have evaluable data for each specific PDn assessment are evaluable for PK and PDn, respectively. Serious adverse events (SAEs) are collected starting on the date of informed consent. Radiological assessment are performed within 4 weeks from the first dose of SRA737 (or gemcitabine if the SRA737 dose for PK is omitted) and repeated every 6 weeks in Stage 1. In Stage 2, assessments are performed every 8 weeks and in long-term follow-up every 16 weeks. Assessments are performed more frequently, when clinically indicated. Cardiac assessments (echocardiogram [ECHO] and electrocardiogram [ECG]) are be conducted. Optional triplet tumor biopsies in some cases are collected within 28 days prior to receiving the first SRA737 dose. Within 7 days of the first dose of SRA737 (or gemcitabine if the SRA737 dose for PK is omitted), the following assessments are completed: complete physical examination, clinical disease assessment, SAE and concomitant medication, WHO performance status and local laboratory assessment of blood (for hematology, biochemistry, and pregnancy testing). At the single-dose PK run-in on Day −7 to Day −4 visit, concomitant medication, vital signs (including temperature, blood pressure, and pulse), height, weight, body surface area (BSA), and WHO performance status are collected. Blood samples are obtained predose for hematology, biochemistry, pregnancy testing, troponin I or T, as well as for tumor markers and tumor profiling. Adverse events (AEs) are collected starting at the administration of SRA737. Archival tissue is submitted for tumor profiling. PK samples are collected at up to 10 time points over a 48-hour time period on Day −7 to −4 (first dose of SRA737 for PK). The sponsor in some cases reduces the requirement for PK sampling, including modification or elimination of the Day −7 to Day −4 visit once sufficient data to evaluate the single-dose PK of SRA737 have been collected and analyzed. […]

[3] = Plasma protein binding, ultracentrifugation, monkey; type: in vitro ADME; settings: for Percentage Bound / Percentage Free: Monkey plasma
Protocol: as §1

CYP 2C9 = CYP 2C9 (Homo sapiens, UniProt P11712); assay: CYP inhibition, 2C9; type: in vitro ADME; settings: highest concentration investigated
Chain of CYP 2C9 (P11712 whole entry): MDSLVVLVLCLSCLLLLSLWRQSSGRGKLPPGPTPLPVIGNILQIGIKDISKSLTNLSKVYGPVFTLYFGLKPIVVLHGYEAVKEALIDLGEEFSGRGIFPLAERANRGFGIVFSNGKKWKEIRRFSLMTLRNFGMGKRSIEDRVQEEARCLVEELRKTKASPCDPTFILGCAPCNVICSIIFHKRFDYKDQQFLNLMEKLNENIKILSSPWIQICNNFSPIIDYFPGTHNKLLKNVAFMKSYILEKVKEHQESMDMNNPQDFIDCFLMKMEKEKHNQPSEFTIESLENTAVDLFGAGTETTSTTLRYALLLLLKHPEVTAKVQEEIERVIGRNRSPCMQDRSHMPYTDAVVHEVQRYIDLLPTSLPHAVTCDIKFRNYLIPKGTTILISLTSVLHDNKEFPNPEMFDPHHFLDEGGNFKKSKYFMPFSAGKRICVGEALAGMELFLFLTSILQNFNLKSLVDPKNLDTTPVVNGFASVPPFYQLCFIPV

Single dose PK, mouse = type: in vivo
Protocol: as §1

[4] = in vivo, Rat IV 5 mg/kg single dose
[5] = in vivo, Rat oral 10 mg/kg single dose
[6] = in vivo, Mouse IV 10 mg/kg single dose
[7] = in vivo, Mouse oral 10 mg/kg single dose

For `N#Cc1cnc(Nc2cc(NCC3CNCCO3)c(C(F)(F)F)cn2)cn1` (stereo not drawn) [SRA737, 5-[[4-[[morpholin-2-yl]methylamino]-5-(trifluoromethyl)-2-pyridyl]amino]pyrazine-2-carbonitrile], the antitumor activity (SW620 mouse colon cancer) was “Significant, dose-dependent antitumor activity”, the “Percentage Bound” value [1] was 68.8% and the “Percentage Free” value [1] was 31.2%. For the same compound, the Foral (Single dose PK, rat; Rat oral 10 mg/kg single dose) was 42%, the AUC(0-t) (Single dose PK, rat; [4]) was 1380 ng·h/mL and the half-life (Single dose PK, rat; [4]) was 1 h. For the same compound, the AUC(0-t) (Single dose PK, rat; [5]) was 1170 ng·h/mL, the Cmax (Single dose PK, rat; [5]) was 190 ng/mL and the Tmax (Single dose PK, rat; [5]) was 2 h. For the same compound, the half-life (Single dose PK, rat; [5]) was 4.6 h, the Cmin ([2]; 150 mg SRA737) was 52 ng/mL and the “dose limiting toxicities (DLTs)” value ([2]; 40 to 600 mg SRA737 combined with gemcitabine 50 to 300 mg/m^2) was “No protocol-defined dose limiting toxicities”. It also gave an AUC(0-t) ([2]; 20 mg, Day −7, n = 8-10, read-out: AUC0-12) of 145 ng·h/mL, a Cmax ([2]; 40 mg, Day 10, n = 4) of 117 ng/mL and a Tmax ([2]; 40 mg, Day 10, n = 4) of 1.8 h. It also gave an AUC(0-t) ([2]; 40 mg, Day 10, n = 4, read-out: AUC0-12) of 543 ng·h/mL, a Cmax ([2]; 40 mg, Day −7, n = 6) of 106 ng/mL and a Tmax ([2]; 40 mg, Day −7, n = 6) of 2 h. It also gave an AUC(0-t) ([2]; 40 mg, Day −7, n = 6, read-out: AUC0-12) of 486 ng·h/mL, an AUC(0-t) ([2]; 40 mg, Day −7, n = 6, read-out: AUC0-24) of 637 ng·h/mL and a Cmax ([2]; 80 mg, Day 10, n = 3) of 113 ng/mL. The Tmax ([2]; 80 mg, Day 10, n = 3) was 2 h, the AUC(0-t) ([2]; 80 mg, Day 10, n = 3, read-out: AUC0-12) was 570 ng·h/mL and the Cmax ([2]; 80 mg, Day −7, n = 3) was 146 ng/mL. It also gave a Tmax ([2]; 80 mg, Day −7, n = 3) of 2 h, an AUC(0-t) ([2]; 80 mg, Day −7, n = 3, read-out: AUC0-12) of 641 ng·h/mL and an AUC(0-t) ([2]; 80 mg, Day −7, n = 3, read-out: AUC0-24) of 825 ng·h/mL. For the same compound, the Cmax ([2]; 150 mg, Day 10, n = 3) was 331 ng/mL, the Tmax ([2]; 150 mg, Day 10, n = 3) was 1.5 h and the AUC(0-t) ([2]; 150 mg, Day 10, n = 3, read-out: AUC0-12) was 1680 ng·h/mL. It also gave a Cmax ([2]; 150 mg, Day −7, n = 4) of 548 ng/mL, a Tmax ([2]; 150 mg, Day −7, n = 4) of 1.8 h and an AUC(0-t) ([2]; 150 mg, Day −7, n = 4, read-out: AUC0-12) of 2630 ng·h/mL. The AUC(0-t) ([2]; 150 mg, Day −7, n = 4, read-out: AUC0-24) was 3550 ng·h/mL, the Cmax ([2]; 300 mg, Day 10, n = 7) was 1080 ng/mL and the Tmax ([2]; 300 mg, Day 10, n = 7) was 1.7 h. The AUC(0-t) ([2]; 300 mg, Day 10, n = 7, read-out: AUC0-12) was 5140 ng·h/mL, the Cmax ([2]; 300 mg, Day −7, n = 7) was 995 ng/mL and the Tmax ([2]; 300 mg, Day −7, n = 7) was 2.4 h. For the same compound, the AUC(0-t) ([2]; 300 mg, Day −7, n = 7, read-out: AUC0-12) was 4530 ng·h/mL, the AUC(0-t) ([2]; 300 mg, Day −7, n = 7, read-out: AUC0-24) was 5910 ng·h/mL and the Cmax ([2]; 500 mg, Day 10, n = 19-22) was 1720 ng/mL. It also gave a Tmax ([2]; 500 mg, Day 10, n = 19-22) of 2.4 h, an AUC(0-t) ([2]; 500 mg, Day 10, n = 19-22, read-out: AUC0-12) of 10200 ng·h/mL and a Cmax ([2]; 500 mg, Day −7, n = 29) of 1430 ng/mL. It also gave a Tmax ([2]; 500 mg, Day −7, n = 29) of 2.4 h, an AUC(0-t) ([2]; 500 mg, Day −7, n = 29, read-out: AUC0-12) of 8320 ng·h/mL and an AUC(0-t) ([2]; 500 mg, Day −7, n = 29, read-out: AUC0-24) of 11400 ng·h/mL. It also gave a Cmax ([2]; 600 mg, Day 10, n = 4) of 2110 ng/mL, a Tmax ([2]; 600 mg, Day 10, n = 4) of 2.5 h and an AUC(0-t) ([2]; 600 mg, Day 10, n = 4, read-out: AUC0-12) of 11900 ng·h/mL. The Cmax ([2]; 600 mg, Day −7, n = 4) was 2210 ng/mL, the Tmax ([2]; 600 mg, Day −7, n = 4) was 1.8 h and the AUC(0-t) ([2]; 600 mg, Day −7, n = 4, read-out: AUC0-12) was 11800 ng·h/mL. It also gave an AUC(0-t) ([2]; 600 mg, Day −7, n = 4, read-out: AUC0-24) of 15100 ng·h/mL, a half-life ([2]; 20 mg, Day −7, n = 8-10) of 4.09 h and a half-life ([2]; 40 mg, Day −7, n = 6) of 11.6 h. For the same compound, the half-life ([2]; 80 mg, Day −7, n = 3) was 11.3 h, the half-life ([2]; 150 mg, Day −7, n = 4) was 12.7 h and the half-life ([2]; 300 mg, Day −7, n = 7) was 11.8 h. For the same compound, the half-life ([2]; 500 mg, Day −7, n = 29) was 11.8 h, the half-life ([2]; 600 mg, Day −7, n = 4) was 11.1 h and the “Percentage Bound” value ([3]; 1 μM) was 88.8%. The “Percentage Free” value ([3]; 1 μM) was 11.2%, the “Percentage Bound” value ([3]; 10 μM) was 85.8% and the “Percentage Free” value ([3]; 10 μM) was 14.2%. For the same compound, the fraction unbound ([3]; plasma, monkey, summary of 1 and 10 μM) was 0.13, the IC50 (CYP 2C9) was 10 to 50 µM and the Foral (Single dose PK, mouse; Mouse oral 10 mg/kg single dose) was 105%. It also gave an AUC(0-t) (Single dose PK, mouse; [6]) of 3770 ng·h/mL, a half-life (Single dose PK, mouse; [6]) of 2.9 h and an AUC(0-t) (Single dose PK, mouse; [7]) of 3940 ng·h/mL. It also gave a Cmax (Single dose PK, mouse; [7]) of 610 ng/mL, a Tmax (Single dose PK, mouse; [7]) of 1 h and a half-life (Single dose PK, mouse; [7]) of 2.8 h.
